The assay has as its system tobacco budworm (Heliothis virescens [Fabricius]). The experiment in a line: Diet test: test chemical incorporated into artificial diet of tobacco budworm larvae, 5-day exposure. In kind it is in vivo. The note with it: for mortality at 100 µM: read-out: Percent Mortality; for IC50: read-out: pl50 (converted); for LC50: negative log of the concentration that provides 50% mortality, read-out: pLC50 (converted). As for the experimental part: Candidate insecticides were incorporated into an artificial diet for evaluation of insecticidal activity against the tobacco budworm (Heliothis virescens [Fabricius]) in the following manner. Stock solutions of test chemical in dimethyl sulfoxide, ranging from […], were prepared for each rate of application. One hundred microliters of each of the stock solutions was manually stirred into 50 mL of a molten (65-70°C) wheat germ-based artificial diet. The 50 mL of molten diet containing the test chemical was poured evenly into twenty wells in the outer two rows on each side of a twenty-five well, five row plastic tray. (Each well in the tray was about 1 cm in depth, with an opening of 3 cm by 4 cm at the lip.) Molten diet containing only dimethyl sulfoxide at the levels used in the test chemical-treated diet was poured into the five wells in the third (center) row of the tray. Each tray therefore contained one test chemical at a single rate of application, together with an untreated control. The rates of application, expressed as the negative log of the molar concentration, and the corresponding concentrations of the stock solution prepared for each rate are shown below:
Single second instar tobacco budworm larvae, selected at a stage of growth at which they uniformly weigh about 5 mg each, were placed in each well. Upon completion of infestation, a sheet of clear plastic was heat-sealed over the top of the tray by use of a common household flat.iron. The trays were held at 25°C at 60% relative humidity for five days in a growth chamber. Lighting was set at 14 hours of light and 10 hours of darkness. After the 5-day exposure period, mortality counts were taken, and the surviving insects were weighed. From the weights of the surviving insects that fed on the treated diet as compared to those insects that fed on the untreated diet, the percent growth inhibition caused by each test chemical was determined. […] Also, where possible, the negative log of the concentration of the test chemical that provided 50% mortality (pLC50) was determined.

Where [1] appears, read: Heliothis virescens, feed or water, 120 h.
Setting [2] is: Heliothis virescens, 120 h, negative log of the concentration that provides 50% growth inhibition, by linear regression, 5 days, * = average of more than one test.
Where [3] appears, read: Heliothis virescens, 120 h, 5 days, * = average of more than one test.
[4] abbreviates: rate of application 4 (negative log of molar concentration in the diet), second instar larvae, 5 days, 25°C, * = average of more than one test.

What is called mortality is the percentage killed. For `[O-][N+]1(Cc2ccc(Oc3ccccn3)cc2)CCC(C(O)(c2ccc(C(F)(F)F)cc2)c2ccc(C(F)(F)F)cc2)CC1` (centres unmarked) [Compound 54], under setting [1], the mortality at 100 µM was determined as 100%.

Consider `[O-][n+]1ccccc1Oc1ccc(CN2CCC(C(O)(c3ccc(C(F)(F)F)cc3)c3ccc(C(F)(F)F)cc3)CC2)cc1` [Compound 55], for which the IC50 under setting [2] was 3.16 µM. Under setting [3], the LC50 is 79.4 µM. Also, the mortality at 100 µM under setting [1] is 55%. Further, under setting [4], the “Percent Growth Inhibition” value was 100%. With `[O-][n+]1ccccc1Oc1ccc(C[N+]2([O-])CCC(C(O)(c3ccc(C(F)(F)F)cc3)c3ccc(C(F)(F)F)cc3)CC2)cc1` (centres unmarked) [Compound 56], the mortality at 100 µM under setting [1] came to 100%. Take `Cc1cccnc1Oc1ccc(CN2CCC(C(O)(c3ccc(C(F)(F)F)cc3)c3ccc(C(F)(F)F)cc3)CC2)cc1` [Compound 57]: under setting [2], the IC50 was 0.794 µM. Besides, the LC50 under setting [3] is 7.94 µM. For the same compound, the mortality at 100 µM under setting [1] is 100%. For the same compound, the “Percent Growth Inhibition” value under setting [4] was determined as 100%. Turning to `Cc1cccnc1Oc1ccc(C[N+]2([O-])CCC(C(O)(c3ccc(C(F)(F)F)cc3)c3ccc(C(F)(F)F)cc3)CC2)cc1` (centres unmarked) [Compound 58], under setting [1], the mortality at 100 µM came out at 100%. As to `Cc1ccc[n+]([O-])c1Oc1ccc(CN2CCC(C(O)(c3ccc(C(F)(F)F)cc3)c3ccc(C(F)(F)F)cc3)CC2)cc1` [Compound 59], under setting [1], the mortality at 100 µM was found to be 100%. On the same count and under the same terms, the value for `OC(c1ccc(C(F)(F)F)cc1)(c1ccc(C(F)(F)F)cc1)C1CCN(Cc2ccc(Oc3ncccc3C(F)(F)F)cc2)CC1` [Compound 60] was 100%. Same read-out and setting: the figure for `[O-][N+]1(Cc2ccc(Oc3ncccc3C(F)(F)F)cc2)CCC(C(O)(c2ccc(C(F)(F)F)cc2)c2ccc(C(F)(F)F)cc2)CC1` (centres unmarked) [Compound 61] is 100%.

Turning to `Cc1ccnc(Oc2ccc(CN3CCC(C(O)(c4ccc(C(F)(F)F)cc4)c4ccc(C(F)(F)F)cc4)CC3)cc2)c1` [Compound 62], the IC50 under setting [2] is 0.631 µM. Besides, the LC50 under setting [3] was 6.31 µM. In addition, the mortality at 100 µM under setting [1] came out at 100%. Moreover, under setting [4], the “Percent Growth Inhibition” value is 100%.

On to `Cc1ccnc(Oc2ccc(C[N+]3([O-])CCC(C(O)(c4ccc(C(F)(F)F)cc4)c4ccc(C(F)(F)F)cc4)CC3)cc2)c1` (centres unmarked) [Compound 63], for which the mortality at 100 µM under setting [1] was 100%.

`OC(c1ccc(C(F)(F)F)cc1)(c1ccc(C(F)(F)F)cc1)C1CCN(Cc2ccc(Oc3cc(C(F)(F)F)ccn3)cc2)CC1` [Compound 64]: under setting [1], the mortality at 100 µM was 100%.

For the compound `[O-][n+]1ccc(C(F)(F)F)cc1Oc1ccc(CN2CCC(C(O)(c3ccc(C(F)(F)F)cc3)c3ccc(C(F)(F)F)cc3)CC2)cc1` [Compound 65], the mortality at 100 µM under setting [1] was found to be 25%. On the same count and under the same terms, the figure for `OC(c1ccc(C(F)(F)F)cc1)(c1ccc(C(F)(F)F)cc1)C1CCN(Cc2ccc(Oc3ccc(Cl)cn3)cc2)CC1` [Compound 66] is 100%; for `[O-][N+]1(Cc2ccc(Oc3ccc(Cl)cn3)cc2)CCC(C(O)(c2ccc(C(F)(F)F)cc2)c2ccc(C(F)(F)F)cc2)CC1` (centres unmarked) [Compound 67] it is 70%; for `Cc1ccc(Oc2ccc(CN3CCC(C(O)(c4ccc(C(F)(F)F)cc4)c4ccc(C(F)(F)F)cc4)CC3)cc2)nc1` [Compound 68] it is 90%. Turning to `Cc1ccc(Oc2ccc(C[N+]3([O-])CCC(C(O)(c4ccc(C(F)(F)F)cc4)c4ccc(C(F)(F)F)cc4)CC3)cc2)nc1` (centres unmarked) [Compound 69], under setting [1], the mortality at 100 µM is 100%.

`OC(c1ccc(C(F)(F)F)cc1)(c1ccc(C(F)(F)F)cc1)C1CCN(Cc2ccc(Oc3ccc(C(F)(F)F)cn3)cc2)CC1` [Compound 70]: the mortality at 100 µM under setting [1] is 100%.

Regarding `[O-][N+]1(Cc2ccc(Oc3ccc(C(F)(F)F)cn3)cc2)CCC(C(O)(c2ccc(C(F)(F)F)cc2)c2ccc(C(F)(F)F)cc2)CC1` (centres unmarked) [Compound 71], the mortality at 100 µM under setting [1] stood at 100%. For `N#Cc1ccc(Oc2ccc(CN3CCC(C(O)(c4ccc(C(F)(F)F)cc4)c4ccc(C(F)(F)F)cc4)CC3)cc2)nc1` [Compound 72], under setting [1], the mortality at 100 µM turned out to be 100%. Same read-out and setting: the figure for `N#Cc1ccc(Oc2ccc(C[N+]3([O-])CCC(C(O)(c4ccc(C(F)(F)F)cc4)c4ccc(C(F)(F)F)cc4)CC3)cc2)nc1` (centres unmarked) [Compound 73] is 100%.

In the case of `Cc1cccc(Oc2ccc(CN3CCC(C(O)(c4ccc(C(F)(F)F)cc4)c4ccc(C(F)(F)F)cc4)CC3)cc2)n1` [Compound 75], the mortality at 100 µM under setting [1] turned out to be 100%. With `Cc1cccc(Oc2ccc(C[N+]3([O-])CCC(C(O)(c4ccc(C(F)(F)F)cc4)c4ccc(C(F)(F)F)cc4)CC3)cc2)n1` (centres unmarked) [Compound 76], the IC50 under setting [2] is 0.631 µM. The LC50 under setting [3] is 6.31 µM. Further, under setting [1], the mortality at 100 µM came to 100%. In addition, the “Percent Growth Inhibition” value under setting [4] is given as 100%. As to `Cc1cccc(Oc2ccc(C[N+]3([O-])CCC(C(O)(c4ccc(C(F)(F)F)cc4)c4ccc(C(F)(F)F)cc4)CC3)cc2)[n+]1[O-]` (centres unmarked) [Compound 77], under setting [1], the mortality at 100 µM turned out to be 60%.

Regarding `OC(c1ccc(C(F)(F)F)cc1)(c1ccc(C(F)(F)F)cc1)C1CCN(Cc2ccc(OCc3ccccn3)cc2)CC1` [Compound 78], the mortality at 100 µM under setting [1] turned out to be 100%. On the same count and under the same terms, the value for `[O-][N+]1(Cc2ccc(OCc3ccccn3)cc2)CCC(C(O)(c2ccc(C(F)(F)F)cc2)c2ccc(C(F)(F)F)cc2)CC1` (centres unmarked) [Compound 79] was 100%; that for `[O-][N+]1(Cc2ccc(OCc3cccnc3)cc2)CCC(C(O)(c2ccc(C(F)(F)F)cc2)c2ccc(C(F)(F)F)cc2)CC1` (centres unmarked) [Compound 82] was 25%.

Regarding `CC(Oc1ccc(CN2CCC(C(O)(c3ccc(C(F)(F)F)cc3)c3ccc(C(F)(F)F)cc3)CC2)cc1)c1ccccn1` (centres unmarked) [Compound 83], under setting [2], the IC50 is 1 µM. Moreover, the LC50 under setting [3] is 31.6 µM. For the same compound, the mortality at 100 µM under setting [1] was 100%. Further, the “Percent Growth Inhibition” value under setting [4] amounted to 100%. With `CC(Oc1ccc(C[N+]2([O-])CCC(C(O)(c3ccc(C(F)(F)F)cc3)c3ccc(C(F)(F)F)cc3)CC2)cc1)c1ccccn1` (centres unmarked) [Compound 84], the mortality at 100 µM under setting [1] was 100%.

In the case of `CC(C)(Oc1ccc(CN2CCC(C(O)(c3ccc(C(F)(F)F)cc3)c3ccc(C(F)(F)F)cc3)CC2)cc1)c1ccccn1` [Compound 86], under setting [1], the mortality at 100 µM is 30%.

Regarding `OC(c1ccc(C(F)(F)F)cc1)(c1ccc(C(F)(F)F)cc1)C1CCN(Cc2ccc(Oc3ncccn3)cc2)CC1` [Compound 95], the mortality at 100 µM under setting [1] amounted to 100%. The same measure, in the same setting: the value for `[O-][N+]1(Cc2ccc(Oc3ncccn3)cc2)CCC(C(O)(c2ccc(C(F)(F)F)cc2)c2ccc(C(F)(F)F)cc2)CC1` (centres unmarked) [Compound 96] was 100%; that for `OC(c1ccc(C(F)(F)F)cc1)(c1ccc(C(F)(F)F)cc1)C1CCN(Cc2ccc(-c3nnn(CCF)n3)cc2)CC1` [Compound 98] was 100%. Still for that read-out and setting: the figure for `[O-][N+]1(Cc2ccc(-c3nnn(CCF)n3)cc2)CCC(C(O)(c2ccc(C(F)(F)F)cc2)c2ccc(C(F)(F)F)cc2)CC1` (centres unmarked) [Compound 99] is 100%; for `OC(c1ccc(C(F)(F)F)cc1)(c1ccc(C(F)(F)F)cc1)C1CCN(Cc2ccc(-c3ncccn3)cc2)CC1` [Compound 100] it is 100%; for `[O-][N+]1(Cc2ccc(-c3ncccn3)cc2)CCC(C(O)(c2ccc(C(F)(F)F)cc2)c2ccc(C(F)(F)F)cc2)CC1` (centres unmarked) [Compound 101] it is 100%.

Turning to `OC(c1ccc(OC(F)(F)F)cc1)(c1ccccc1OC(F)(F)F)C1CCN(Cc2ccc(C3OCCO3)cc2)CC1` (centres unmarked) [Compound 103, N-[4-(1,3-dioxolan-2-yl)phenylmethyl]-4-[(4-trifluoromethoxyphenyl)(2-trifluoromethoxyphenyl)hydroxymethyl]piperidine], the IC50 under setting [2] was at most 0.316 µM. Besides, the LC50 under setting [3] was 12.6 µM. Moreover, the mortality at 100 µM under setting [1] is 100%. Further, the pest or weed control at 100 µM (Heliothis virescens, feed or water, 120 h, rate of application 4 (negative log of molar concentration in the diet), second instar larvae, 5 days, 25°C, * = average of more than one test, read-out: Percent Growth Inhibition) is 100%. With `CCn1nnc(-c2ccc(CN3CCC(C(O)(c4ccc(C(F)(F)F)cn4)c4ccc(C(F)(F)F)cn4)CC3)cc2)n1` [Compound 104], under setting [2], the IC50 is at most 0.316 µM. In addition, the LC50 under setting [3] was 0.398 µM. Further, under setting [1], the mortality at 100 µM came to 100%. Besides, the pl50 (negative log of the concentration that provides 50% growth inhibition, by linear regression, 5 days, * = average of more than one test) is listed as 6.8. Moreover, the “Percent Growth Inhibition” value under setting [4] stood at 100%.

The record behind these values is patent EP0844825B1, “INSECTICIDAL N-(SUBSTITUTED ARYLMETHYL)-4- BIS(SUBSTITUTED PHENYL OR PYRIDYL)METHYL]PIPERIDINES” (FMC CORPORATION, priority 1995, dated 1996).
